According to patent US10357036B2, “Compounds for controlling arthropods” (priority 2015, dated 2019):

Legend:
Ctenocephalides felis [1] = experiment: Ctenocephalides felis in vitro contact test with adult cat fleas; type: in vivo; conditions: application rate 5 μg/cm^2 (=500 g/ha); after 48 h; dead or moribund fleas
Procedure: (§1) For the coating of the test tubes, 9 mg of active ingredient are first dissolved in 1 ml of acetone p.a. and then diluted to the desired concentration with acetone p.a. 250 μl of the solution are distributed homogeneously on the inner walls and the base of a 25 ml glass tube by turning and rocking on an orbital shaker (rocking rotation at 30 rpm for 2 h). With 900 ppm of active ingredient solution and internal surface area 44.7 cm^2, given homogeneous distribution, an area-based dose of 5 μg/cm^2 is achieved.
After the solvent has evaporated off, the tubes are populated with 5-10 adult cat fleas (Ctenocephalides felis), sealed with a perforated plastic lid and incubated in a horizontal position at room temperature and ambient humidity. After 48 h, efficacy is determined. To this end, the tubes are stood upright and the fleas are knocked to the base of the tube. Fleas which remain motionless at the base or move in an uncoordinated manner are considered to be dead or moribund.
100% efficacy means that all the fleas were dead or moribund. 0% efficacy means that no fleas were harmed.

Rhipicephalus sanguineus = Rhipicephalus sanguineus in vitro contact test with adult brown dog ticks; type: in vivo; conditions: after 48 h
Procedure: as §1
After the solvent has evaporated off, the tubes are populated with 5-10 adult dog ticks (Rhipicephalus sanguineus), sealed with a perforated plastic lid and incubated in a horizontal position in the dark at room temperature and ambient humidity. After 48 h, efficacy is determined. To this end, the ticks are knocked to the base of the tube and incubated on a hotplate at 45-50° C. for not more than 5 min. Ticks which remain motionless on the base or move in such an uncoordinated manner that they are unable to deliberately avoid the heat by climbing upwards are considered to be dead or moribund.
An efficacy of 100% means that all the ticks were dead or moribund. 0% efficacy means that none of the ticks were harmed.

Boophilus microplus = Boophilus microplus injection test; type: in vivo; conditions: 20 μg/animal; assessed after 7 days
Procedure: (§2) • Solvent: dimethyl sulfoxide
1 μl of the active ingredient solution is injected into the abdomen of 5 engorged adult female cattle ticks (Boophilus microplus). The animals are transferred into dishes and kept in a climate-controlled room.

Ctenocephalides felis [2] = experiment: Ctenocephalides felis oral test; type: in vivo; conditions: 100 ppm in citrated cattle blood; after 2 days
Procedure: • Solvent: Dimethyl Sulfoxide
To produce a suitable active ingredient formulation, 10 mg of active ingredient are mixed with 0.5 ml of dimethyl sulfoxide. Dilution with citrated cattle blood gives the desired concentration.
About 20 unfed adult cat fleas (Ctenocephalides fells) are placed into a chamber which is closed at the top and bottom with gauze. A metal cylinder whose bottom end is closed with parafilm is placed onto the chamber. The cylinder contains the blood/active ingredient formulation, which can be imbibed by the fleas through the parafilm membrane.

Musca domestica = Musca domestica test; type: in vivo; conditions: 100 ppm; adult houseflies; after 2 days
Procedure: as §2
To produce a suitable active ingredient formulation, 10 mg of active ingredient are mixed with 0.5 ml of dimethyl sulfoxide, and the concentrate is diluted with water to the desired concentration.
Vessels containing a sponge treated with sugar solution and the active ingredient formulation of the desired concentration are populated with 10 adult houseflies (Musca domestica).

Spodoptera frugiperda = Spodoptera frugiperda spray test; type: in vivo; conditions: 100 g/ha; after 7 days
Tetranychus urticae = Tetranychus urticae spray test, OP-resistant (bean leaf discs); type: in vivo; conditions: 100 g/ha; after 6 days
Procedure: (§3) After 6 days, the efficacy in % is determined.

Phaedon cochleariae = Phaedon cochleariae spray test; conditions: 100 g/ha; after 7 days
Myzus persicae = Myzus persicae spray test (Chinese cabbage leaf discs); type: in vivo; conditions: 100 g/ha; after 6 days
Procedure: as §3

[3] = application rate 5 μg/cm^2 (=500 g/ha), dead or moribund ticks

## CC(=O)NCc1cc(-c2cnn(-c3c(Cl)cc(C(F)(C(F)(F)F)C(F)(F)F)cc3C(F)(F)F)c2)ccc1F [Ia-82]
Ctenocephalides felis [1]
  efficacy: 100%
Rhipicephalus sanguineus; [3]
  efficacy: 100%
Boophilus microplus
  efficacy (laying of fertile eggs): 100%
Ctenocephalides felis [2]
  efficacy (rate of extermination): 100%
Musca domestica
  efficacy (rate of extermination): 100%
Spodoptera frugiperda
  efficacy: 100%
Tetranychus urticae
  efficacy: 100%
Phaedon cochleariae
  efficacy: 100%

## CCC(=O)NCc1cccc(-c2cnn(-c3c(Cl)cc(C(F)(C(F)(F)F)C(F)(F)F)cc3OC(F)F)c2)c1F [Ia-159]
Boophilus microplus
  efficacy (laying of fertile eggs): 100%
Ctenocephalides felis [2]
  efficacy (rate of extermination): 100%
Musca domestica
  efficacy (rate of extermination): 100%
Myzus persicae
  efficacy: 90%
Spodoptera frugiperda
  efficacy: 100%
Phaedon cochleariae
  efficacy: 100%

## CC(=O)N(C)Cc1cc(-c2cnn(-c3c(Cl)cc(C(F)(C(F)(F)F)C(F)(F)F)cc3OC(F)(F)F)c2)ccc1F [Ia-63]
Ctenocephalides felis [1]
  efficacy: 100%
Rhipicephalus sanguineus; [3]
  efficacy: 80%
Boophilus microplus
  efficacy (laying of fertile eggs): 100%
Ctenocephalides felis [2]
  efficacy (rate of extermination): 100%
Musca domestica
  efficacy (rate of extermination): 100%
Spodoptera frugiperda
  efficacy: 100%
Tetranychus urticae
  efficacy: 100%
Phaedon cochleariae
  efficacy: 100%

## CC(=O)N(Cc1cc(-c2cnn(-c3c(Cl)cc(C(F)(C(F)(F)F)C(F)(F)F)cc3Cl)c2)ccc1Cl)CC1CC1 [Ia-116]
Ctenocephalides felis [1]
  efficacy: 100%
Rhipicephalus sanguineus; [3]
  efficacy: 80%
Boophilus microplus
  efficacy (laying of fertile eggs): 100%
Ctenocephalides felis [2]
  efficacy (rate of extermination): 100%
Musca domestica
  efficacy (rate of extermination): 100%
Spodoptera frugiperda
  efficacy: 100%
Tetranychus urticae
  efficacy: 100%
Phaedon cochleariae
  efficacy: 100%

## CC(=O)N(C)Cc1cc(-c2cnn(-c3c(Cl)cc(C(F)(C(F)(F)F)C(F)(F)F)cc3Cl)c2)ccc1Cl [Ia-20]
Ctenocephalides felis [1]
  efficacy: 100%
Rhipicephalus sanguineus; [3]
  efficacy: 80%
Boophilus microplus
  efficacy (laying of fertile eggs): 100%
Ctenocephalides felis [2]
  efficacy (rate of extermination): 100%
Musca domestica
  efficacy (rate of extermination): 90%
Spodoptera frugiperda
  efficacy: 100%
Tetranychus urticae
  efficacy: 100%
Phaedon cochleariae
  efficacy: 100%

## CCC(=O)NCc1cc(-c2cnn(-c3c(Cl)cc(C(F)(C(F)(F)F)C(F)(F)F)cc3C(F)(F)F)c2)cnc1Cl [Ia-138]
Myzus persicae
  efficacy: 90%
Spodoptera frugiperda
  efficacy: 100%
Tetranychus urticae
  efficacy: 90%
Phaedon cochleariae
  efficacy: 100%

## CCC(=O)N(C)Cc1cc(-c2cnn(-c3c(Cl)cc(C(F)(C(F)(F)F)C(F)(F)F)cc3OC(F)(F)F)c2)cnc1Cl [Ia-135]
Myzus persicae
  efficacy: 90%
Spodoptera frugiperda
  efficacy: 100%
Tetranychus urticae
  efficacy: 100%
Phaedon cochleariae
  efficacy: 100%

## CC(=O)NCc1cc(-c2cnn(-c3c(Cl)cc(C(F)(C(F)(F)F)C(F)(F)F)cc3C#N)c2)ccc1Cl [Ia-104]
Ctenocephalides felis [1]
  efficacy: 100%
Rhipicephalus sanguineus; [3]
  efficacy: 100%
Boophilus microplus
  efficacy (laying of fertile eggs): 100%
Ctenocephalides felis [2]
  efficacy (rate of extermination): 100%
Musca domestica
  efficacy (rate of extermination): 100%
Spodoptera frugiperda
  efficacy: 100%
Tetranychus urticae
  efficacy: 100%
Phaedon cochleariae
  efficacy: 100%

## CCC(=O)NC1CCc2ccc(-c3cnn(-c4c(Cl)cc(C(F)(C(F)(F)F)C(F)(F)F)cc4OC(F)F)c3)cc21 (stereo not shown) [I-Tc-03]
Ctenocephalides felis [1]
  efficacy: 100%
Rhipicephalus sanguineus; [3]
  efficacy: 100%
Boophilus microplus
  efficacy (laying of fertile eggs): 100%
Ctenocephalides felis [2]
  efficacy (rate of extermination): 100%
Spodoptera frugiperda
  efficacy: 100%
Tetranychus urticae
  efficacy: 100%

## O=C(NCc1cc(-c2cnn(-c3c(Cl)cc(C(F)(C(F)(F)F)C(F)(F)F)cc3C(F)(F)F)c2)ccc1Cl)C1CC1 [Ia-54]
Ctenocephalides felis [1]
  efficacy: 80%
Rhipicephalus sanguineus; [3]
  efficacy: 100%
Boophilus microplus
  efficacy (laying of fertile eggs): 100%
Ctenocephalides felis [2]
  efficacy (rate of extermination): 100%
Musca domestica
  efficacy (rate of extermination): 100%
Spodoptera frugiperda
  efficacy: 100%
Phaedon cochleariae
  efficacy: 100%

## CCC(=O)NCc1cccc(-c2cnn(-c3c(Cl)cc(C(F)(C(F)(F)F)C(F)(F)F)cc3Cl)c2)c1F [Ia-152]
Boophilus microplus
  efficacy (laying of fertile eggs): 100%
Ctenocephalides felis [2]
  efficacy (rate of extermination): 100%
Musca domestica
  efficacy (rate of extermination): 100%
Myzus persicae
  efficacy: 100%
Spodoptera frugiperda
  efficacy: 100%
Phaedon cochleariae
  efficacy: 100%

## CCC(=O)NCc1cc(-c2cnn(-c3c(Cl)cc(C(F)(C(F)(F)F)C(F)(F)F)cc3C(F)F)c2)cnc1Cl [Ia-154]
Myzus persicae
  efficacy: 90%
Spodoptera frugiperda
  efficacy: 100%
Tetranychus urticae
  efficacy: 100%
Phaedon cochleariae
  efficacy: 100%

## O=C(NCc1cc(-c2cnn(-c3c(Cl)cc(C(F)(C(F)(F)F)C(F)(F)F)cc3OC(F)F)c2)ccc1Cl)C1CC1 [Ia-52]
Ctenocephalides felis [1]
  efficacy: 100%
Rhipicephalus sanguineus; [3]
  efficacy: 100%
Boophilus microplus
  efficacy (laying of fertile eggs): 100%
Ctenocephalides felis [2]
  efficacy (rate of extermination): 100%
Musca domestica
  efficacy (rate of extermination): 100%
Spodoptera frugiperda
  efficacy: 100%
Phaedon cochleariae
  efficacy: 100%

## CC(=O)NCc1cc(-c2cnn(-c3c(Cl)cc(C(F)(C(F)(F)F)C(F)(F)F)cc3C(F)(F)F)c2)cnc1Cl [Ia-139]
Ctenocephalides felis [1]
  efficacy: 100%
Rhipicephalus sanguineus; [3]
  efficacy: 100%
Boophilus microplus
  efficacy (laying of fertile eggs): 100%
Ctenocephalides felis [2]
  efficacy (rate of extermination): 100%
Musca domestica
  efficacy (rate of extermination): 100%
Spodoptera frugiperda
  efficacy: 100%
Tetranychus urticae
  efficacy: 90%
Phaedon cochleariae
  efficacy: 100%

## CCC(=O)NCc1cc(-c2cnn(-c3c(Cl)cc(C(F)(C(F)(F)F)C(F)(F)F)cc3Cl)c2)ccc1F [Ia-30]
Ctenocephalides felis [1]
  efficacy: 100%
Rhipicephalus sanguineus; [3]
  efficacy: 100%
Boophilus microplus
  efficacy (laying of fertile eggs): 100%
Ctenocephalides felis [2]
  efficacy (rate of extermination): 100%
Musca domestica
  efficacy (rate of extermination): 100%
Spodoptera frugiperda
  efficacy: 100%

## CC(=O)NCc1cccc(-c2cnn(-c3c(Cl)cc(C(F)(C(F)(F)F)C(F)(F)F)cc3OC(F)F)c2)c1F [Ia-155]
Boophilus microplus
  efficacy (laying of fertile eggs): 100%
Ctenocephalides felis [2]
  efficacy (rate of extermination): 100%
Musca domestica
  efficacy (rate of extermination): 100%
Myzus persicae
  efficacy: 90%
Spodoptera frugiperda
  efficacy: 100%
Phaedon cochleariae
  efficacy: 100%

## Cc1cc(C(F)(C(F)(F)F)C(F)(F)F)cc(Cl)c1-n1cc(-c2ccc(F)c(CNC(=O)C3CC3)c2)cn1 [Ia-67]
Ctenocephalides felis [1]
  efficacy: 80%
Rhipicephalus sanguineus; [3]
  efficacy: 80%
Boophilus microplus
  efficacy (laying of fertile eggs): 100%
Ctenocephalides felis [2]
  efficacy (rate of extermination): 100%
Musca domestica
  efficacy (rate of extermination): 100%
Spodoptera frugiperda
  efficacy: 100%
Tetranychus urticae
  efficacy: 100%
Phaedon cochleariae
  efficacy: 100%

## CCC(=O)N(C)Cc1cc(-c2cnn(-c3c(Cl)cc(C(F)(C(F)(F)F)C(F)(F)F)cc3Cl)c2)ccc1Cl [Ia-32]
Ctenocephalides felis [1]
  efficacy: 100%
Rhipicephalus sanguineus; [3]
  efficacy: 80%
Boophilus microplus
  efficacy (laying of fertile eggs): 100%
Ctenocephalides felis [2]
  efficacy (rate of extermination): 100%
Spodoptera frugiperda
  efficacy: 100%
Tetranychus urticae
  efficacy: 100%
Phaedon cochleariae
  efficacy: 100%

## CC(=O)NCc1cc(-c2cnn(-c3c(Cl)cc(C(F)(C(F)(F)F)C(F)(F)F)cc3S(C)(=O)=O)c2)ccc1F [Ia-11]
Rhipicephalus sanguineus; [3]
  efficacy: 100%
Boophilus microplus
  efficacy (laying of fertile eggs): 100%
Ctenocephalides felis [2]
  efficacy (rate of extermination): 100%
Musca domestica
  efficacy (rate of extermination): 100%
Myzus persicae
  efficacy: 100%
Tetranychus urticae
  efficacy: 100%
Phaedon cochleariae
  efficacy: 100%

## CCC(=O)NCc1cccc(-c2cnn(-c3c(C)cc(C(F)(C(F)(F)F)C(F)(F)F)cc3Cl)c2)c1 [Ia-69]
Ctenocephalides felis [1]
  efficacy: 100%
Rhipicephalus sanguineus; application rate 1 μg/cm^2 (=100 g/ha)
  efficacy: 80%
Boophilus microplus
  efficacy (laying of fertile eggs): 100%
Ctenocephalides felis [2]
  efficacy (rate of extermination): 100%
Musca domestica
  efficacy (rate of extermination): 100%
Spodoptera frugiperda
  efficacy: 100%
Phaedon cochleariae
  efficacy: 100%

## CC(=O)NCc1cc(-c2cnn(-c3c(Cl)cc(C(F)(C(F)(F)F)C(F)(F)F)cc3OC(F)F)c2)cnc1Cl [Ia-156]
Myzus persicae
  efficacy: 90%
Spodoptera frugiperda
  efficacy: 100%
Tetranychus urticae
  efficacy: 100%
Phaedon cochleariae
  efficacy: 100%

## O=C(NCc1cc(-c2cnn(-c3c(Cl)cc(C(F)(C(F)(F)F)C(F)(F)F)cc3C(F)F)c2)ccc1F)C1CC1 [Ia-58]
Myzus persicae
  efficacy: 70%
Spodoptera frugiperda
  efficacy: 100%
Tetranychus urticae
  efficacy: 100%
Phaedon cochleariae
  efficacy: 100%

## CCC(=O)NCc1cc(-c2cnn(-c3c(Cl)cc(C(F)(C(F)(F)F)C(F)(F)F)cc3Cl)c2)ccc1Cl [Ia-16]
Ctenocephalides felis [1]
  efficacy: 100%
Rhipicephalus sanguineus; [3]
  efficacy: 100%
Boophilus microplus
  efficacy (laying of fertile eggs): 100%
Ctenocephalides felis [2]
  efficacy (rate of extermination): 100%
Musca domestica
  efficacy (rate of extermination): 100%
Spodoptera frugiperda
  efficacy: 100%
Phaedon cochleariae
  efficacy: 100%
